The values that follow come from patent US10231966B2, “Combination therapy for treating pulmonary hypertension” (priority 2016, dated 2019).

Like-named read-outs stand apart in the source and are kept apart here.

The test system of data set [1] is PDGFRβ isoform, PDGFRα isoform. The following applies: background statement; cited from earlier work.
The test system of data set [2] is patients with advanced PAH. Particulars: background statement; cited from earlier work.
Data set [3] concerns rat monocrotaline model of PAH. The following applies: background statement; cited from earlier work.
The conditions of data set [4]: rat, in vivo, 0.4 mg/kg.
Data set [5] deals with T1, phosphorylated PDGFRβ (Y1021) (Rattus norvegicus, UniProt Q05030).
T1 construct: from tissue; host or cells: rat lung (male SD rats)
T1 sequence (Q05030 32-1097): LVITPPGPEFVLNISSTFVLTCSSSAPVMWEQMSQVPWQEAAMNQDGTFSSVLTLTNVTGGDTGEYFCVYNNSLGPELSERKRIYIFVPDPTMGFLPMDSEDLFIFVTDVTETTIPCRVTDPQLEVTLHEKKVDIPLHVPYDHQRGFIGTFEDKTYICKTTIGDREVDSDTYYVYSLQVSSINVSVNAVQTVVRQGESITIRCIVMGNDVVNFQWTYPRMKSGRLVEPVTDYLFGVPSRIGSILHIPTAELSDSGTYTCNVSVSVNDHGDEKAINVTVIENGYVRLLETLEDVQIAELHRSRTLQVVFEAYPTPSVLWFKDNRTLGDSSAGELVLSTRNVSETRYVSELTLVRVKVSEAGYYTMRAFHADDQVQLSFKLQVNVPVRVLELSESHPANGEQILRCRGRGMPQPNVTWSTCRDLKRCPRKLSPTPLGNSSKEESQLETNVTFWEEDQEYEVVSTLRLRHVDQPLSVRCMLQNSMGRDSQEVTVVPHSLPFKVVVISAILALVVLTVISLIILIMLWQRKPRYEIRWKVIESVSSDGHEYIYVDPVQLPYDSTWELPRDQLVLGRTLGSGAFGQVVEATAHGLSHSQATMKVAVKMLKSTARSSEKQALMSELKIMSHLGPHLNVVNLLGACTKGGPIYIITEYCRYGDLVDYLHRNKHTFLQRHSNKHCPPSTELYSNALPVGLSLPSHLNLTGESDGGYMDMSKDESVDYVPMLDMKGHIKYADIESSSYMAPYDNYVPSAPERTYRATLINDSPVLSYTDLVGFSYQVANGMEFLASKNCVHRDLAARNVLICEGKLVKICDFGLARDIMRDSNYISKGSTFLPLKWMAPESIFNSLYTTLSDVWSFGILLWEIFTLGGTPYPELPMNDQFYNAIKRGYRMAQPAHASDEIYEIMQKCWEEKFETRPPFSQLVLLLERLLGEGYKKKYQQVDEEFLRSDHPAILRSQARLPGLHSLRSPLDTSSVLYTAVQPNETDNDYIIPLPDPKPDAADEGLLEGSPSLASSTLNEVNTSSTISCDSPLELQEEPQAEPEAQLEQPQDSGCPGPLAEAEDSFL
In words: Immunohistochemistry of lung sections for pPDGFRβ in the AAV-PDGFB SU5416 hypoxia model. The format is in vivo. Particulars: vs V-V and TA-V. As for the experimental part: (§1) Four weeks later, 20 mg/kg of semaxanib (SU5416) was administered using intraperitoneal (i.p.) injection, and the rats were housed in a hypoxia chamber at fraction of inspired oxygen (FiO2) 10% for 3 weeks. […] Daily treatments were administered starting day 2 after removing the rats from the hypoxia chamber and were continued for 4 weeks (28 days). Antigen retrieval was performed using heat-induced epitope retrieval. Immunohistochemistry of lung sections was performed for PDGFBB, total PDGFRα, total PDGFRβ, pPDGFRα, and pPDGFRβ. Signal detection was performed with an EXPOSE horseradish peroxidase/diaminobenzidine (HRP/DAB) kit.

In data set [6] the target is PDGFRβ (Homo sapiens, UniProt P09619). Particulars: human lung fibroblasts.
PDGFRβ, sequence (P09619 33-1106): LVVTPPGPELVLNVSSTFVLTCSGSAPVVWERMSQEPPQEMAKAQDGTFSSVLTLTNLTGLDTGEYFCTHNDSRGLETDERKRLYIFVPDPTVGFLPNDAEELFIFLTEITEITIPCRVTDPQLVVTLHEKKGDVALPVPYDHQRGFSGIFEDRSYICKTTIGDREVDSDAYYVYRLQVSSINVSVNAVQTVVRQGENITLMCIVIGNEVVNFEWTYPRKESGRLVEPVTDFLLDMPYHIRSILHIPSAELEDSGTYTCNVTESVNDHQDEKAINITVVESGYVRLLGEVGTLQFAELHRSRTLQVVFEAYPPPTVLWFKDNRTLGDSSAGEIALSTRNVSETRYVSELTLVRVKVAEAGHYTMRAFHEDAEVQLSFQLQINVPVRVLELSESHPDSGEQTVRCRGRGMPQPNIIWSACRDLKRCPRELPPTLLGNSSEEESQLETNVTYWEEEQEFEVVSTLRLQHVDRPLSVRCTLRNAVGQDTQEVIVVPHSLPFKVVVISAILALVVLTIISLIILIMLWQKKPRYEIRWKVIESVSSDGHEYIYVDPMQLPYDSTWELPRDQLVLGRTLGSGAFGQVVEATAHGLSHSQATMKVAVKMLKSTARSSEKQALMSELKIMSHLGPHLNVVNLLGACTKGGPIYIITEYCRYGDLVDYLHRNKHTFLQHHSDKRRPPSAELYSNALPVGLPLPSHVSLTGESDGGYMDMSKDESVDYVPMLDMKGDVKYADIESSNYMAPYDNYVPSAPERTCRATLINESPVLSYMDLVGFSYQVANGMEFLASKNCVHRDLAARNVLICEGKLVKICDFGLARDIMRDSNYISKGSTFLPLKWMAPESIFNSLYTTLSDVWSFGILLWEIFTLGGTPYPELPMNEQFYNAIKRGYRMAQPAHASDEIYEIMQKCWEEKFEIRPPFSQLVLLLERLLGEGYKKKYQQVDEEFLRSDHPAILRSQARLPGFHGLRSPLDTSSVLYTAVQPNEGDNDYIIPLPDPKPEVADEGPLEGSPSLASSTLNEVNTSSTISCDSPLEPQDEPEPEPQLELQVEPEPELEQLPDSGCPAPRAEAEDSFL
The target in data set [7] is T2, pPDGFRβ (Y1021) (Rattus norvegicus, UniProt Q05030).
T2 construct: Lung tissue samples were homogenized in pH 7.4 lysis buffer; from tissue; host or cells: rat lung (male SD rats)
T2 sequence (Q05030 32-1097): as the sequence (Q05030 32-1097) above
The data set can be described thus: Western blot of lung pPDGFRβ (Y1021) in the AAV-PDGFB SU5416 hypoxia model. It is filed as in vivo. Particulars: vs V-V and TA-V, total PDGFRβ and β actin controls. As for the experimental part: Four weeks later, 20 mg/kg of semaxanib (SU5416) was administered using intraperitoneal (i.p.) injection, and the rats were housed in a hypoxia chamber at fraction of inspired oxygen (FiO2) 10% for 3 weeks. […] Daily treatments were administered starting day 2 after removing the rats from the hypoxia chamber and were continued for 4 weeks (28 days). […] Lysates were normalized and separated on 7.5% or 12% polyacrylamide gels and transferred to nitrocellulose membranes. After blocking, the membranes were probed with one of the following antibodies: anti-PDGFRβ, anti-phospho ([…])-PDGFRβ, pMYPT, MYPT, pSTAT3, or STAT3. The samples were incubated overnight on a shaker, followed by a 1 hour incubation with secondary antibodies conjugated with HRP. Bound antibodies were detected by chemiluminescence using an enhanced chemiluminescence (ECL) detection system, and quantified by densitometry using a Licor C-Digit® Blot Scanner.

Data set [8] concerns AAV-PDGFB overexpression SU5416 hypoxia rat model of PH. The data set can be described thus: AAV-PDGFB SU5416 hypoxia study: RVSP, right ventricular hypertrophy, lumen/media ratio. It is filed as in vivo.
The target of data set [9] is T3, phosphorylated PDGFRα (Y751) (Rattus norvegicus, UniProt P20786).
T3 construct: from tissue; host or cells: rat lung sections (male SD rats)
T3 sequence (P20786 24-1088): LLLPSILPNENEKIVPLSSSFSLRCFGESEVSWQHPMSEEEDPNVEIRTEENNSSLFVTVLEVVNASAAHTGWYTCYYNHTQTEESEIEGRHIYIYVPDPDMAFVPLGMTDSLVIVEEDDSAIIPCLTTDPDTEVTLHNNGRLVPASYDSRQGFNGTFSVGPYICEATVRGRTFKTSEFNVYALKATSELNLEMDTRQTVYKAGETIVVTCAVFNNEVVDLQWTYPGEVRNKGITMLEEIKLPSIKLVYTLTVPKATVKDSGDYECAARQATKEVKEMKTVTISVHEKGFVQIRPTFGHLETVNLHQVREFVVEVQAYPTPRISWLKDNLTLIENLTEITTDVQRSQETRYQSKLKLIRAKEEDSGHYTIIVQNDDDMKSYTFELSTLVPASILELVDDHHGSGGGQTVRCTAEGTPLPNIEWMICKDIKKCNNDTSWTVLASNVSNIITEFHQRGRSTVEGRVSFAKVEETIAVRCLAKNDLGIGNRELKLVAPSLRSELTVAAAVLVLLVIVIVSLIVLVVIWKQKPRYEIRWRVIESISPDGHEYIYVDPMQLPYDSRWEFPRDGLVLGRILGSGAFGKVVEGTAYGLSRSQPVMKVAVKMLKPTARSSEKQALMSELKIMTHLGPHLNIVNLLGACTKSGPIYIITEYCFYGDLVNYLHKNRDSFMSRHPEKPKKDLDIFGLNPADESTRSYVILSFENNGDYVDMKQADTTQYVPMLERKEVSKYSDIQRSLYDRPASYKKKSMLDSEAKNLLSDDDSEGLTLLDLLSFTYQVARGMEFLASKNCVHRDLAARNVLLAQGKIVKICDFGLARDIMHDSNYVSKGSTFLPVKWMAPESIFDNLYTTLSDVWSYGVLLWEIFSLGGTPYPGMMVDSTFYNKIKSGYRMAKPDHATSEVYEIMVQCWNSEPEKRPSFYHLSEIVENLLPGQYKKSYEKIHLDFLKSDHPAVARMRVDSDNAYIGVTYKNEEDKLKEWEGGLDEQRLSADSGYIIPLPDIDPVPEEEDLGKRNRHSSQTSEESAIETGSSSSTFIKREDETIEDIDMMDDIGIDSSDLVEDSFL
In words: Immunohistochemistry of lung sections for pPDGFRα in the AAV-PDGFB SU5416 hypoxia model. The format is in vivo. Particulars: vs V-V and TA-V. Here is the method:
as §1

The target of data set [10] is T2, pPDGFRβ (Y1021). In words: Western blot of pPDGFRβ (Y1021) in lung lysates of rats with pulmonary hypertension after inhaled Compound 1. The format is in vivo. Particulars: pPDGFRβ (Y1021) vs total PDGFRβ.
The nature of data set [11]: in vivo. Particulars: male, Sprague Dawley, rat.
The subject of data set [12] is PDGFB gene expression. The data set can be described thus: PDGFB lung gene expression (RT-qPCR) in the AAV-PDGFB SU5416 hypoxia rat model. It is filed as in vivo. Particulars: RT-qPCR normalized to 18S, 4 weeks treatment. Here is the method:
Four weeks later, 20 mg/kg of semaxanib (SU5416) was administered using intraperitoneal (i.p.) injection, and the rats were housed in a hypoxia chamber at fraction of inspired oxygen (FiO2) 10% for 3 weeks. […] Daily treatments were administered starting day 2 after removing the rats from the hypoxia chamber and were continued for 4 weeks (28 days). RNA from lung tissue was isolated using TRIzol™ reagent. The RNA concentration was measured using a Nanodrop™ 1000 Spectrophotometer. Equal amounts of RNA of each sample were transcribed to cDNA using a high-capacity cDNA Reverse Transcription kit. Reverse transcription (RT)-qPCR reactions were set up using TaqMan™ Gene Expression Master Mix and TaqMan™ primers/probes for PDGFB and 18S. The gene expression assay was carried out using a QuantStudio™ 6 Flex system. Gene expression was normalized to the expression of 18S, which was used as a housekeeping gene.

Setting [13] is: inhaled or intranasal, 0.4 mg/kg.

Turning to `Cc1ccc(NC(=O)c2ccc(CN3CCN(C)CC3)cc2)cc1Nc1nccc(-c2cccnc2)n1` [imatinib], the “potency against PDGFR isoforms” value in data set [1] is “less potent against the PDGFRβ isoform than the PDGFRα isoform”. Besides, the cardiopulmonary hemodynamics entry in data set [2] is listed as “improves”. Further, in [3], the “right ventricular systolic pressure (RVSP)” value is “decreases” and the survival entry was “improves survival”.
As to `COc1ccc(-c2cncc(N[C@@H](C)c3cccc(NC(=O)c4cncc(C)c4)c3)n2)cc1OC` [Compound 1], in data set [4] (male, Sprague Dawley), the “maximum arterial and venous average concentrations” value was “about 1 μg/mL”; the “time after administration at which average arterial and venous concentrations reached zero” value is “about 400 minutes”. Also, in data set [4] (inhaled or intranasal), the “AUC(0-inf)” value worked out at 25403.578 µg·min/g and the “AUC(0-t)” value was found to be 23583.976 µg·min/g. In [5], the “phosphorylated PDGFRβ (Y1021) in the lungs” value is “decrease”. In [6], the “fold more potent than imatinib at inhibiting PDGFB-stimulated phosphorylation of PDGFRβ” value is reported as “about 2.5 fold”. Moreover, the “pPDGFRβ (Y1021) in the lungs” value in data set [7] was “decreases”. Also, the “lumen/media ratio of pulmonary arterioles” value in data set [8] (H&E lung sections, four weeks treatment, mean±SEM) turned out to be 0.76±0.04. Moreover, the “AVG RVSP” value in data set [8] (Table 4, four weeks treatment) is on record as 44.30 mm Hg. Further, in [8] (Table 4, vs V-V), the “% Reduction RVSP” value turned out to be 29%. Moreover, in data set [8] (four weeks treatment), the “decrease of RV/(LV+IVS) ratio compared to the vehicle (V-V) group” value amounted to 25% and the “decrease of RVSP compared to vehicle (V-V)” value was found to be 29%. Besides, the RVSP in data set [8] (four weeks, tadalafil 10 mg/kg and ambrisentan 10 mg/kg gavage once daily, Compound 1 0.6 mg/kg inhaled twice daily, mean±SEM) came out at 44.3±1.9 mm Hg. Moreover, the “right ventricular hypertrophy, RV/(LV+IVS)” value in data set [8] (ratio of RV weight to LV plus interventricular septum weight, four weeks treatment, mean±SEM) is listed as 0.36±0.01. In [9], the “phosphorylated PDGFRα (Y751) in the lungs” value was “decrease”. For the same compound, in data set [10], the “pPDGFRβ levels in lung compared to animals treated with the vehicle” value is recorded as “decreased pPDGFRβ levels”. For the same compound, the Kp in data set [11] (0.4 mg/kg) is 20 to 80. Also, in data set [11] (setting [13]), the AUC(0-inf) was 2130 ng·h/mL and the AUC(0-t) was 1940 ng·h/mL. Moreover, the half-life in data set [11] (inhaled or intranasal, terminal half-life in lung (t1/2β)) was found to be 6.43 h. Also, in data set [11] (inhaled or intranasal, terminal half-life in plasma), the half-life came out at 2.08 h. In addition, the “effect on levels of PDGFB gene expression” value in data set [12] is reported as “did not affect levels of PDGFB gene expression significantly”.
